# Molecular target: T1, PRKD1 (PKC mu) (Homo sapiens, UniProt Q15139)
# T1 sequence (Q15139 1-912): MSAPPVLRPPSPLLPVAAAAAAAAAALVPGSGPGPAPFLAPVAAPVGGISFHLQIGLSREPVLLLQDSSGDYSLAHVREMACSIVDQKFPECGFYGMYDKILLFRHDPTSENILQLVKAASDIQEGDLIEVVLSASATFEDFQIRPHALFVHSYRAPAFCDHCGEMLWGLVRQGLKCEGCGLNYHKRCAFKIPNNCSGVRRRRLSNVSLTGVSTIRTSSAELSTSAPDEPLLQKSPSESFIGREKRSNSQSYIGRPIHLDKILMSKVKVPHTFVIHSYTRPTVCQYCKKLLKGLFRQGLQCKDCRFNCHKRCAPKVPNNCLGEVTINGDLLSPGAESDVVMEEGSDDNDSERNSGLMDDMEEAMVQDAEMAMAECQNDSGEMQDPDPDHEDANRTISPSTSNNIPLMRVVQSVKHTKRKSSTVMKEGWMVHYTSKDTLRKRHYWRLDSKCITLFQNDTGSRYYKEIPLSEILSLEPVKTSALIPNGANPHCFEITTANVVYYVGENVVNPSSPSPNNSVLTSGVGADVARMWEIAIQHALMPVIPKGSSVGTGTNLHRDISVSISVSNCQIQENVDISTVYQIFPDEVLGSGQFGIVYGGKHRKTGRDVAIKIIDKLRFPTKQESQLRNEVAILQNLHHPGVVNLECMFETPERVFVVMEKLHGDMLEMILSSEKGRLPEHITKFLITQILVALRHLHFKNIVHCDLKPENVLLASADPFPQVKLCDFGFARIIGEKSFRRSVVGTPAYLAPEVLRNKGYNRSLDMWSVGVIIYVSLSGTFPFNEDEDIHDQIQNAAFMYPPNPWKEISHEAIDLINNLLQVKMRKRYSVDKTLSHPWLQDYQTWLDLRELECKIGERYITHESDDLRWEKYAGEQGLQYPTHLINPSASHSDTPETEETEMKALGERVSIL
# Assay: High-throughput kinase assay
# Type: biochemical
# Details: 50 nM; read-out: Percent inhibition of kinase activity in vitro, PRKD1 (PKC mu)
# Description: (§1) Screening of Compounds 1-4 against several kinases identified two prominent targets of these compounds as the Aurora A kinase and calcium dependent protein kinase C isoforms α, βI, βII and […] (Tables 1 to 3). IC50s for these two targets were obtained by plotting inhibition levels at 500 nM, 100 nM, 50 nM and 10 nM (FIG. 3). These kinases are directly involved in pathways controlling cell differentiation programs, metastasis signaling, as well as EMT and CSC programming and their overexpression was reported to predict decreased metastasis-free survival.
row,Structure (SMILES),inhibition at 0.05 µM
1,O=c1c2ccccc2[se]n1-c1nc(N[C@H]2CC[Se]C2)c2nc[nH]c2n1 [Compound 4],7%
2,O=c1c2ccccc2[se]n1-c1nc(NC2CCCCC2)c2nc[nH]c2n1 [Compound 1],5%
3,"O=C1c2ccccc2CN1c1nc(NC2CCCCC2)c2nc[nH]c2n1 [SLLN-6C, reference compound]",6%

# Molecular target: T2, PRKCI (PKC iota) (Homo sapiens, UniProt P41743)
# T2 sequence (P41743 1-596): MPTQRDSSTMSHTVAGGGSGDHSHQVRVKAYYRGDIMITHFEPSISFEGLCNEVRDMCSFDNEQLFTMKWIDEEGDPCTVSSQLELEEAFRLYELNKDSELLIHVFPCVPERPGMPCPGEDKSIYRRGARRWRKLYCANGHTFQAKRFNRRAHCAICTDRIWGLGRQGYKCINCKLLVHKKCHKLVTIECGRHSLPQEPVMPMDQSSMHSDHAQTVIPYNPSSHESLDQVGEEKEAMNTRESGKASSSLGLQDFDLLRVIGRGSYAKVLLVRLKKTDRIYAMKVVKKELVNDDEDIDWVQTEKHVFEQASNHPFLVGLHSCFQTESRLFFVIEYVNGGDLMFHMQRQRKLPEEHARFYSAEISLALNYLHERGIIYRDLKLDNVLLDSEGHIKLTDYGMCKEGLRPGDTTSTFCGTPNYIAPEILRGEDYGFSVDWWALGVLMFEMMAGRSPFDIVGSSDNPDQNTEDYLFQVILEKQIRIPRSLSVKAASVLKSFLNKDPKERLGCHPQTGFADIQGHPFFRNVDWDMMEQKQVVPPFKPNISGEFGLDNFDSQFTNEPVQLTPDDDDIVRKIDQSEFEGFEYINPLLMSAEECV
# Assay: High-throughput kinase assay
# Type: biochemical
# Details: 50 nM; read-out: Percent inhibition of kinase activity in vitro, PRKCI (PKC iota)
# Description: as §1
row,Structure (SMILES),inhibition at 0.05 µM
1,O=c1c2ccccc2[se]n1-c1nc(N[C@H]2CC[Se]C2)c2nc[nH]c2n1 [Compound 4],7%
2,O=c1c2ccccc2[se]n1-c1nc(NC2CCCCC2)c2nc[nH]c2n1 [Compound 1],4%
3,"O=C1c2ccccc2CN1c1nc(NC2CCCCC2)c2nc[nH]c2n1 [SLLN-6C, reference compound]",7%

# Molecular target: AKT1 (PKB alpha) (Homo sapiens, UniProt P31749)
# Sequence (P31749 whole entry): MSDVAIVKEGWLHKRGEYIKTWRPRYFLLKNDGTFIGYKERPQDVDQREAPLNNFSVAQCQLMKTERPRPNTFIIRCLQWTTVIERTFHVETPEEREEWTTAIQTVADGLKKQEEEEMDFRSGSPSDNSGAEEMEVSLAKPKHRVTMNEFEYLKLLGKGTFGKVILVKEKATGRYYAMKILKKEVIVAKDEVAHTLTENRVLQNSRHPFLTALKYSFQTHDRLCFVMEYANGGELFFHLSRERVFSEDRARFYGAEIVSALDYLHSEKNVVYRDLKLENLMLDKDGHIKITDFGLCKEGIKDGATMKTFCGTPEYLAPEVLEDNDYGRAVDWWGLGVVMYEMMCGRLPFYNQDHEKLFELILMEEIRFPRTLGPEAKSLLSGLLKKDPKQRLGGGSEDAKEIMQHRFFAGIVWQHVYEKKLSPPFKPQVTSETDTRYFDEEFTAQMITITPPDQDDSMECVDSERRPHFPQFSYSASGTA
# Assay: High-throughput kinase assay
# Type: biochemical
# Details: 100 nM; read-out: Percent inhibition of kinase activity in vitro, AKT1 (PKB alpha)
# Description: as §1
row,Structure (SMILES),inhibition at 0.1 µM
1,O=c1c2ccccc2[se]n1-c1nc(NC2CC[Se]C2)c2nc[nH]c2n1 (centres unmarked) [Compound 2],4%
2,O=c1c2ccccc2[se]n1-c1nc(N[C@H]2CC[Se]C2)c2nc[nH]c2n1 [Compound 4],4%
3,O=c1c2ccccc2[se]n1-c1nc(NC2CCCCC2)c2nc[nH]c2n1 [Compound 1],4%
4,C[C@@H]1C(Nc2nc(-n3[se]c4ccccc4c3=O)nc3[nH]cnc23)C[C@H]2C[C@@H]1C2(C)C (some centres unmarked) [Compound 3],1%
5,"O=C1c2ccccc2CN1c1nc(NC2CCCCC2)c2nc[nH]c2n1 [SLLN-6C, reference compound]",2%

# Same assay, conditions: 500 nM; read-out: Percent inhibition of kinase activity in vitro, AKT1 (PKB alpha)
row,Structure (SMILES),inhibition at 0.5 µM
1,O=c1c2ccccc2[se]n1-c1nc(NC2CC[Se]C2)c2nc[nH]c2n1 (centres unmarked) [Compound 2],15%
2,O=c1c2ccccc2[se]n1-c1nc(NC2CCCCC2)c2nc[nH]c2n1 [Compound 1],11%
3,C[C@@H]1C(Nc2nc(-n3[se]c4ccccc4c3=O)nc3[nH]cnc23)C[C@H]2C[C@@H]1C2(C)C (some centres unmarked) [Compound 3],29%

# Molecular target: PTK2 (FAK) (Homo sapiens, UniProt Q05397)
# Sequence (Q05397 whole entry): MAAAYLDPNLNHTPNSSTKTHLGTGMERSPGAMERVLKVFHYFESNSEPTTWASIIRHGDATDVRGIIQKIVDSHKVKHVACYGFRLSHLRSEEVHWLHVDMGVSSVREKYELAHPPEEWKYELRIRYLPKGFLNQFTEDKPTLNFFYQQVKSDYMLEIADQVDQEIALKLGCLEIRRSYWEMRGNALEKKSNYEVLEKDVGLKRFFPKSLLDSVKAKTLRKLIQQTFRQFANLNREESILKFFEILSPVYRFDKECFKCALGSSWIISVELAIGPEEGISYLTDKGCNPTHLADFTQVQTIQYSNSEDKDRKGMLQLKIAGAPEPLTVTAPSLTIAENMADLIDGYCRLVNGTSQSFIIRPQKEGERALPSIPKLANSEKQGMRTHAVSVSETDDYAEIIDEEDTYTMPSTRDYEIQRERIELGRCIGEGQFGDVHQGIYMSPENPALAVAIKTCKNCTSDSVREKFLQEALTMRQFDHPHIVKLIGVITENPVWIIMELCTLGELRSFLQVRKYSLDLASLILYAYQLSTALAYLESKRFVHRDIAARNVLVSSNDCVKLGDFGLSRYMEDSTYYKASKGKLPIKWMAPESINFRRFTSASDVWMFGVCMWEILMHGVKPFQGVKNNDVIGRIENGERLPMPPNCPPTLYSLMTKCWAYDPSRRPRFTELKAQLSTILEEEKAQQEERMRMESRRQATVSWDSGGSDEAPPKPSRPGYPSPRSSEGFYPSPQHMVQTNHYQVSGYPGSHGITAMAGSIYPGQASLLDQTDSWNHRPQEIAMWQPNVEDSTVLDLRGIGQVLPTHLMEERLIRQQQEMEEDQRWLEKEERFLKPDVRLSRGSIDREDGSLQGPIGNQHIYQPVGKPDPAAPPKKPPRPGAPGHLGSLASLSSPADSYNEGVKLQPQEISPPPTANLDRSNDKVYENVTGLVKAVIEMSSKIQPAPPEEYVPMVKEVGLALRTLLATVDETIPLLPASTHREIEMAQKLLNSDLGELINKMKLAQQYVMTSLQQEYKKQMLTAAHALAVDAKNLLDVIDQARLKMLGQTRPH
# Assay: High-throughput kinase assay
# Type: biochemical
# Details: 100 nM; read-out: Percent inhibition of kinase activity in vitro, PTK2 (FAK)
# Description: as §1
row,Structure (SMILES),inhibition at 0.1 µM
1,O=c1c2ccccc2[se]n1-c1nc(NC2CC[Se]C2)c2nc[nH]c2n1 (centres unmarked) [Compound 2],5%
2,O=c1c2ccccc2[se]n1-c1nc(N[C@H]2CC[Se]C2)c2nc[nH]c2n1 [Compound 4],1%
3,O=c1c2ccccc2[se]n1-c1nc(NC2CCCCC2)c2nc[nH]c2n1 [Compound 1],5%
4,C[C@@H]1C(Nc2nc(-n3[se]c4ccccc4c3=O)nc3[nH]cnc23)C[C@H]2C[C@@H]1C2(C)C (some centres unmarked) [Compound 3],0%
5,"O=C1c2ccccc2CN1c1nc(NC2CCCCC2)c2nc[nH]c2n1 [SLLN-6C, reference compound]",3%

# Same assay, conditions: 500 nM; read-out: Percent inhibition of kinase activity in vitro, PTK2 (FAK)
row,Structure (SMILES),inhibition at 0.5 µM
1,O=c1c2ccccc2[se]n1-c1nc(NC2CC[Se]C2)c2nc[nH]c2n1 (centres unmarked) [Compound 2],7%
2,O=c1c2ccccc2[se]n1-c1nc(NC2CCCCC2)c2nc[nH]c2n1 [Compound 1],7%
3,C[C@@H]1C(Nc2nc(-n3[se]c4ccccc4c3=O)nc3[nH]cnc23)C[C@H]2C[C@@H]1C2(C)C (some centres unmarked) [Compound 3],8%

# Molecular target: PIK3CA/PIK3R1 (Homo sapiens, UniProt P42336)
# Assay: High-throughput kinase assay
# Type: biochemical
# Details: 100 nM; read-out: Percent inhibition of kinase activity in vitro, PIK3CA/PIK3R1
# Description: as §1
row,Structure (SMILES),inhibition at 0.1 µM
1,O=c1c2ccccc2[se]n1-c1nc(NC2CC[Se]C2)c2nc[nH]c2n1 (centres unmarked) [Compound 2],0%
2,O=c1c2ccccc2[se]n1-c1nc(N[C@H]2CC[Se]C2)c2nc[nH]c2n1 [Compound 4],0%
3,O=c1c2ccccc2[se]n1-c1nc(NC2CCCCC2)c2nc[nH]c2n1 [Compound 1],0%
4,C[C@@H]1C(Nc2nc(-n3[se]c4ccccc4c3=O)nc3[nH]cnc23)C[C@H]2C[C@@H]1C2(C)C (some centres unmarked) [Compound 3],12%
5,"O=C1c2ccccc2CN1c1nc(NC2CCCCC2)c2nc[nH]c2n1 [SLLN-6C, reference compound]",0%

# Same assay, conditions: 500 nM; read-out: Percent inhibition of kinase activity in vitro, PIK3CA/PIK3R1
row,Structure (SMILES),inhibition at 0.5 µM
1,O=c1c2ccccc2[se]n1-c1nc(NC2CC[Se]C2)c2nc[nH]c2n1 (centres unmarked) [Compound 2],62%
2,O=c1c2ccccc2[se]n1-c1nc(NC2CCCCC2)c2nc[nH]c2n1 [Compound 1],61%
3,C[C@@H]1C(Nc2nc(-n3[se]c4ccccc4c3=O)nc3[nH]cnc23)C[C@H]2C[C@@H]1C2(C)C (some centres unmarked) [Compound 3],53%

# Molecular target: PRKCQ (PKC theta) (Homo sapiens, UniProt Q04759)
# Sequence (Q04759 whole entry): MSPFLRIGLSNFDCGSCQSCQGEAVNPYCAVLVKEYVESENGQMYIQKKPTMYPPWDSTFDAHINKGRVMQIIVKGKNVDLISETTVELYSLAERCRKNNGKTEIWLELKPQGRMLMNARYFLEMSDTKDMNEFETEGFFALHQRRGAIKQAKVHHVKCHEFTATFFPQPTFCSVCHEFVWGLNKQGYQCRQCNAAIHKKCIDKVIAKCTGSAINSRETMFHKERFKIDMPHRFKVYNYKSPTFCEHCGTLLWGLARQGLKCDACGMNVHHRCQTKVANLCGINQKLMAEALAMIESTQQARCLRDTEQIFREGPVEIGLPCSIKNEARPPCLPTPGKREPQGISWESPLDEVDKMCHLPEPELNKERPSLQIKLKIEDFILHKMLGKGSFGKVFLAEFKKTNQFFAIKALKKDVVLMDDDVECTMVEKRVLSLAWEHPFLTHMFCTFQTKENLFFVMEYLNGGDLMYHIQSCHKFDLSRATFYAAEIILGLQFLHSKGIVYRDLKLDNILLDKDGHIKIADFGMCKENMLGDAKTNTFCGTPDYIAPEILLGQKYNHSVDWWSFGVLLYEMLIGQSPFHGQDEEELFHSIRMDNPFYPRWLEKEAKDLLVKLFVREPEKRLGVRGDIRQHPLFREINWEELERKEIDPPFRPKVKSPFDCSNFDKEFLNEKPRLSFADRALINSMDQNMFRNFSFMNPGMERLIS
# Assay: High-throughput kinase assay
# Type: biochemical
# Details: 50 nM; read-out: Percent inhibition of kinase activity in vitro, PRKCQ (PKC theta)
# Description: as §1
row,Structure (SMILES),inhibition at 0.05 µM
1,O=c1c2ccccc2[se]n1-c1nc(N[C@H]2CC[Se]C2)c2nc[nH]c2n1 [Compound 4],98%
2,O=c1c2ccccc2[se]n1-c1nc(NC2CCCCC2)c2nc[nH]c2n1 [Compound 1],62%
3,"O=C1c2ccccc2CN1c1nc(NC2CCCCC2)c2nc[nH]c2n1 [SLLN-6C, reference compound]",0%

# Molecular target: YES1 (Homo sapiens, UniProt P07947)
# Sequence (P07947 whole entry): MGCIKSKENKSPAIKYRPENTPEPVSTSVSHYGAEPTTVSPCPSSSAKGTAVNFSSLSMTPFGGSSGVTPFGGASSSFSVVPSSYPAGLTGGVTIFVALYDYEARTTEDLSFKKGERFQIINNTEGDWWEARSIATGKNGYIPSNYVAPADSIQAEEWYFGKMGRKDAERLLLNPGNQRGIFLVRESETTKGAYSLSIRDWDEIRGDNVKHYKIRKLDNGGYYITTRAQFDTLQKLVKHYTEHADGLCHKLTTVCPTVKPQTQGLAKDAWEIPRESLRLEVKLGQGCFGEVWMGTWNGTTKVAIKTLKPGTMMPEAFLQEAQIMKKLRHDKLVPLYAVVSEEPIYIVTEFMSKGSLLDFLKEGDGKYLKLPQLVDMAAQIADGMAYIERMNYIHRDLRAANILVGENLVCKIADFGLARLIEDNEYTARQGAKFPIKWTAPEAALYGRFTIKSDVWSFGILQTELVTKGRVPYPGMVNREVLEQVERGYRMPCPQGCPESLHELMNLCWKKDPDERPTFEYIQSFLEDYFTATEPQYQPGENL
# Assay: High-throughput kinase assay
# Type: biochemical
# Details: 100 nM; read-out: Percent inhibition of kinase activity in vitro, YES1
# Description: as §1
row,Structure (SMILES),inhibition at 0.1 µM
1,O=c1c2ccccc2[se]n1-c1nc(NC2CC[Se]C2)c2nc[nH]c2n1 (centres unmarked) [Compound 2],22%
2,O=c1c2ccccc2[se]n1-c1nc(N[C@H]2CC[Se]C2)c2nc[nH]c2n1 [Compound 4],24%
3,O=c1c2ccccc2[se]n1-c1nc(NC2CCCCC2)c2nc[nH]c2n1 [Compound 1],22%
4,C[C@@H]1C(Nc2nc(-n3[se]c4ccccc4c3=O)nc3[nH]cnc23)C[C@H]2C[C@@H]1C2(C)C (some centres unmarked) [Compound 3],17%
5,"O=C1c2ccccc2CN1c1nc(NC2CCCCC2)c2nc[nH]c2n1 [SLLN-6C, reference compound]",5%

# Same assay, conditions: 500 nM; read-out: Percent inhibition of kinase activity in vitro, YES1
row,Structure (SMILES),inhibition at 0.5 µM
1,O=c1c2ccccc2[se]n1-c1nc(NC2CC[Se]C2)c2nc[nH]c2n1 (centres unmarked) [Compound 2],35%
2,O=c1c2ccccc2[se]n1-c1nc(NC2CCCCC2)c2nc[nH]c2n1 [Compound 1],47%
3,C[C@@H]1C(Nc2nc(-n3[se]c4ccccc4c3=O)nc3[nH]cnc23)C[C@H]2C[C@@H]1C2(C)C (some centres unmarked) [Compound 3],53%

# Molecular target: ERBB2 (HER2) (Homo sapiens, UniProt P04626)
# Sequence (P04626 23-1255): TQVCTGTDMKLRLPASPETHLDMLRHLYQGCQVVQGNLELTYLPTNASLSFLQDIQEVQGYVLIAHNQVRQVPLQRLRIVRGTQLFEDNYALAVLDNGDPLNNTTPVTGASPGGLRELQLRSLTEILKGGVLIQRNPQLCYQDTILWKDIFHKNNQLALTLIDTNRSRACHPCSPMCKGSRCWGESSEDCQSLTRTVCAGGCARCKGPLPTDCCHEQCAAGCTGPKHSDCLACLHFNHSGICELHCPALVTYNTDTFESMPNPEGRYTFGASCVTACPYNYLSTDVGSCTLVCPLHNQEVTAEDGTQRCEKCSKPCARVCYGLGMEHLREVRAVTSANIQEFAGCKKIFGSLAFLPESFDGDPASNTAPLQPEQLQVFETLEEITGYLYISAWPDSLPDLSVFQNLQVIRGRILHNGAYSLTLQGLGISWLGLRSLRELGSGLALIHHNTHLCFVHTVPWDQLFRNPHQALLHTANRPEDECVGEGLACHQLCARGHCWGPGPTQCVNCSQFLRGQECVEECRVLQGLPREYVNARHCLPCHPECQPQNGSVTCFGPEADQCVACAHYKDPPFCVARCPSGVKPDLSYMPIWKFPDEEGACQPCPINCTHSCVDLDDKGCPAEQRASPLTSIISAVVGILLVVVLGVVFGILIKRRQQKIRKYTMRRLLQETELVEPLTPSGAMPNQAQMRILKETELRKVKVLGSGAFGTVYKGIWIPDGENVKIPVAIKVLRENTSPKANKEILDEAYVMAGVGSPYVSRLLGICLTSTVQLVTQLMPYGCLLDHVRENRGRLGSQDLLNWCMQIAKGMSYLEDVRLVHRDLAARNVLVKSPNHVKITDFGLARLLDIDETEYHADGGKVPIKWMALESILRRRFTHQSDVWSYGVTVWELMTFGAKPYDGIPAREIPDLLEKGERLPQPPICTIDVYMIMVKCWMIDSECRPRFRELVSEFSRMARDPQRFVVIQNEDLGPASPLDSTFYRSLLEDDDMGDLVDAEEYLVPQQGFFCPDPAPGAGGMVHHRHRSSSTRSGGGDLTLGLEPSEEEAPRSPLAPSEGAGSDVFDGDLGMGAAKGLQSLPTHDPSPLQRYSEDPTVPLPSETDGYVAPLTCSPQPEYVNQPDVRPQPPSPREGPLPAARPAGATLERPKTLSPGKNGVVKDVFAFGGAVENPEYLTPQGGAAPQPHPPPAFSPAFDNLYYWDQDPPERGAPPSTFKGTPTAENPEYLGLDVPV
# Assay: High-throughput kinase assay
# Type: biochemical
# Details: 500 nM; read-out: Percent inhibition of kinase activity in vitro, ERBB2 (HER2)
# Description: as §1
row,Structure (SMILES),inhibition at 0.5 µM
1,O=c1c2ccccc2[se]n1-c1nc(NC2CC[Se]C2)c2nc[nH]c2n1 (centres unmarked) [Compound 2],0%
2,O=c1c2ccccc2[se]n1-c1nc(NC2CCCCC2)c2nc[nH]c2n1 [Compound 1],0%
3,C[C@@H]1C(Nc2nc(-n3[se]c4ccccc4c3=O)nc3[nH]cnc23)C[C@H]2C[C@@H]1C2(C)C (some centres unmarked) [Compound 3],2%

# Molecular target: EEF2K (Homo sapiens, UniProt O00418)
# Assay: High-throughput kinase assay
# Type: biochemical
# Details: 100 nM; read-out: Percent inhibition of kinase activity in vitro, EEF2K
# Description: as §1
row,Structure (SMILES),inhibition at 0.1 µM
1,O=c1c2ccccc2[se]n1-c1nc(N[C@H]2CC[Se]C2)c2nc[nH]c2n1 [Compound 4],10%
2,O=c1c2ccccc2[se]n1-c1nc(NC2CCCCC2)c2nc[nH]c2n1 [Compound 1],7%
3,"O=C1c2ccccc2CN1c1nc(NC2CCCCC2)c2nc[nH]c2n1 [SLLN-6C, reference compound]",1%

# Same assay, conditions: 500 nM; read-out: Percent inhibition of kinase activity in vitro, EEF2K
row,Structure (SMILES),inhibition at 0.5 µM
1,O=c1c2ccccc2[se]n1-c1nc(NC2CC[Se]C2)c2nc[nH]c2n1 (centres unmarked) [Compound 2],11%
2,O=c1c2ccccc2[se]n1-c1nc(NC2CCCCC2)c2nc[nH]c2n1 [Compound 1],11%
3,C[C@@H]1C(Nc2nc(-n3[se]c4ccccc4c3=O)nc3[nH]cnc23)C[C@H]2C[C@@H]1C2(C)C (some centres unmarked) [Compound 3],5%

# From patent publication US10711002B2, “Purine compounds and method for the treatment of cancer” (THE ROYAL INSTITUTION FOR THE ADVANCEMENT OF …, priority 2016, dated 2020)
